Reference: patent US11613538B2, “Method of inhibiting or reducing a viral infection” (PTC Therapeutics, Inc., priority 2009, dated 2023)

test system: hypoxia-induced VEGF production in HeLa cells; assay: cells; assay type: cell-based, human; conditions: Homo sapiens, HeLa

SMILES	EC50 [nM]
O=C(Oc1ccc(Cl)cc1)N1CCc2c([nH]c3ccc(Cl)cc23)[C@H]1c1ccc(O)cc1 [Compound 1332]	> 1000
[H]/N=c1\scnn1CCOc1ccc(C2c3[nH]c4ccc(Cl)cc4c3CCN2C(=O)OCCOC)cc1 (stereo not drawn) [Compound 1412]	8 to 40
C=CCOC(=O)N1CCc2c([nH]c3ccc(Cl)cc23)C1c1ccc(OCCCN2CCOCC2)cc1 (stereo not drawn) [Compound 1079]	< 8
CCC(CO)(CO)COc1ccc([C@H]2c3[nH]c4ccc(Cl)cc4c3CCN2C(=O)OCC2CC2)cc1 [Compound 1383]	< 8
O[C@H](COc1ccc([C@H]2c3[nH]c4ccc(Cl)cc4c3CCN2c2ncccn2)cc1)CN1CCOCC1 [Compound 1249]	< 8
Cc1ccc(C(=O)N2CCc3c([nH]c4ccc(Cl)cc34)C2c2ccc(OCCCN3CCOCC3)cc2)cc1 (stereo not drawn) [Compound 1190]	40 to 200
COc1ccc(C2c3[nH]c4ccc(Cl)cc4c3CCN2C(=O)C(=O)OC(C)C)cc1 (stereo not drawn) [Compound 1338]	8 to 40
CC#CCOC(=O)N1CCc2c([nH]c3ccc(Cl)cc23)[C@@H]1c1ccc(OC2CCN(CCN3CCOCC3)CC2)cc1 [Compound 1679]	8 to 40
NC(=O)COc1ccc(C2c3[nH]c4ccc(Cl)cc4c3CCN2C(=O)Oc2ccc(Br)cc2)cc1 (stereo not drawn) [Compound 1214]	8 to 40
CC1(COC(=O)N2CCc3c([nH]c4ccc(Cl)cc34)[C@@H]2c2ccc(OC[C@H](O)CO)cc2)CC1 [Compound 1378]	< 8
CCOC(=O)N1CCc2c([nH]c3ccc(Cl)cc23)[C@@H]1c1ccc(OCCC(O)CNC(=O)OC)cc1 (stereo partly drawn) [Compound 1619]	< 8
CCOC(=O)N1CCc2c([nH]c3ccc(Cl)cc23)[C@@H]1c1ccc(Oc2ncccn2)cc1 [Compound 1573]	< 8
CC(C)OC(=O)N1CCc2c([nH]c3ccc(Br)cc23)C1c1ccc(OCC(C)(CO)CO)cc1 (stereo not drawn) [Compound 1350]	< 8
COc1ccc(OC(=O)N2CCc3c([nH]c4ccc(Cl)cc34)C2c2ccc(OCCCN3CCN(C)CC3)cc2)cc1 (stereo not drawn) [Compound 1108]	8 to 40
CCC(CO)(CO)COc1ccc([C@H]2c3[nH]c4ccc(Cl)cc4c3CCN2C(=O)OC2CCCC2)cc1 [Compound 1327]	< 8
O=C(Oc1ccc(C2NCCc3c2[nH]c2ccc(Cl)cc32)cc1)c1ccccc1 (stereo not drawn) [Compound 1540]	8 to 40
CC#CCOC(=O)N1CCc2c([nH]c3cccc(Cl)c23)C1c1ccc(OC)cc1 (stereo not drawn) [Compound 1530]	40 to 200
CC1(C)OC[C@H](CCOc2ccc([C@H]3c4[nH]c5ccc(Cl)cc5c4CCN3C(=O)OCC3CC3)cc2)O1 [Compound 1314]	< 8
COc1ccc(C2c3[nH]c4cc(Cl)ccc4c3CCN2C(=O)Oc2ccc(Cl)cc2)cc1 (stereo not drawn) [Compound 1444]	40 to 200
CCOC(=O)N1CCc2c([nH]c3ccc(Cl)cc23)C1c1ccc(OCC2OCCO2)cc1 (stereo not drawn) [Compound 1033]	8 to 40
COc1ccc(C2c3[nH]c4ccc(Cl)cc4c3CCN2c2nc(-c3ccc(Cl)cc3)cs2)cc1 (stereo not drawn) [Compound 1597]	< 8
O=C(OC1CCCC1)N1CCc2c([nH]c3ccc(Cl)cc23)[C@@H]1c1ccc(OC[C@H](O)CO)cc1 [Compound 1322]	< 8
COc1ccc(C2c3[nH]c4cccc(Cl)c4c3CCN2C(=O)Oc2ccc(Cl)cc2)cc1 (stereo not drawn) [Compound 1531]	40 to 200
CCOC(=O)N1CCc2c([nH]c3ccc(Br)cc23)C1c1ccc(C(=O)N(C)CC(=O)O)cc1 (stereo not drawn) [Compound 1390]	> 1000
C=CCOc1ccc([C@H]2c3[nH]c4ccc(Cl)cc4c3CCN2C(=O)OC2CCCC2)cc1 [Compound 1262]	< 8
O=C(OCCF)N1CCc2c([nH]c3ccc(Cl)cc23)C1c1ccc(OCC2OCCO2)cc1 (stereo not drawn) [Compound 1039]	< 8

SMILES	EC50 [nM]
O=C(Oc1ccc(Cl)cc1)N1CCc2c([nH]c3ccc(Cl)cc23)C1c1ccc(OCCCN(CCO)CCO)cc1 (stereo not drawn) [Compound 1184]	< 8
CC(C)COC(=O)N1CCc2c([nH]c3ccc(Cl)cc23)C1c1ccc(OCC[C@H]2COC(C)(C)O2)cc1 (stereo partly drawn) [Compound 1165]	< 8
Cc1ccc(C(=O)N2CCc3c([nH]c4ccc(Cl)cc34)C2c2ccc(OCCCn3cncn3)cc2)cc1 (stereo not drawn) [Compound 1135]	8 to 40
CCOC(=O)N1CCc2c([nH]c3ccc(Cl)cc23)[C@@H]1c1ccc(Oc2ncc(CN3CCOCC3)s2)cc1 [Compound 1656]	< 8
O=C(Oc1ccc(Cl)cc1)N1CCc2c([nH]c3ccc(Cl)cc23)[C@@H]1c1ccc(OC2CCN(CC[C@H](O)CO)CC2)cc1 [Compound 1703]	200 to 1000
CC(C)OC(=O)N1CCc2c([nH]c3ccc(Cl)cc23)[C@@H]1c1ccc(OCCCO)cc1 [Compound 1252]	< 8
COc1ccc(OC(=O)N2CCc3c([nH]c4c(C)cccc34)C2c2ccc(OC)cc2)cc1 (stereo not drawn) [Compound 1427]	> 1000
CCOC(=O)N1CCc2c([nH]c3ccc(Cl)cc23)[C@@H]1c1ccc(OCCC(O)CNS(=O)(=O)CC)cc1 (stereo partly drawn) [Compound 1623]	< 8
CC(C)OC(=O)N1CCc2c([nH]c3ccc(Cl)cc23)[C@@H]1c1ccc(OCC(C)(CO)CO)cc1 [Compound 1296]	8 to 40
CCOC(=O)N1CCc2c([nH]c3ccc(Cl)cc23)[C@@H]1c1ccc(OCCC(O)CN2CCOCC2)cc1 (stereo partly drawn) [Compound 1272]	< 8
COCCOC(=O)N1CCc2c([nH]c3ccc(Cl)cc23)C1c1ccc(OCCNc2cc(C)no2)cc1 (stereo not drawn) [Compound 1411]	200 to 1000
CCOC(=O)N1CCc2c([nH]c3ccc(Cl)cc23)[C@@H]1c1ccc(OCCC(O)CNC(=O)COC)cc1 (stereo partly drawn) [Compound 1271]	8 to 40
COc1ccc(C2c3[nH]c4ccc(Cl)cc4c3CCN2C(=N)SC2CCCC2=O)cc1 (stereo not drawn) [Compound 1593]	40 to 200
O=C(OCC1CCC1)N1CCc2c([nH]c3ccc(Cl)cc23)[C@@H]1c1ccc(OCC2(CO)COCOC2)cc1 [Compound 1386]	8 to 40
CC(CO)(CO)COc1ccc([C@H]2c3[nH]c4ccc(Cl)cc4c3CCN2C(=O)OCC2CC2)cc1 [Compound 1375]	< 8
CCOC(=O)NCC(O)CCOc1ccc([C@H]2c3[nH]c4ccc(Cl)cc4c3CCN2C(=O)OCC)cc1 (stereo partly drawn) [Compound 1665]	8 to 40
CC(C)(C)COC(=O)N1CCc2c([nH]c3ccc(Cl)cc23)C1c1ccc(OCC[C@H](O)CO)cc1 (stereo partly drawn) [Compound 1177]	< 8
COc1ccc(C2c3[nH]c4ccc(Cl)cc4c3CCN2C(=O)C(=O)OCC2CC2)cc1 (stereo not drawn) [Compound 1717]	8 to 40
COc1ccc(C2c3[nH]c4cccc(Br)c4c3CCN2C(=O)Oc2ccc(Cl)cc2)cc1 (stereo not drawn) [Compound 1525]	40 to 200
CCOC(=O)N1CCc2c([nH]c3ccc(Cl)cc23)[C@@H]1c1ccc(OC[C@H]2COC(C)(C)O2)cc1 [Compound 1226]	< 8
COC(=O)N1CCc2c([nH]c3ccc(Cl)cc23)C1c1ccc(OCC2OCCO2)cc1 (stereo not drawn) [Compound 1032]	8 to 40
CC1(C)OC[C@H](CCOc2ccc([C@H]3c4[nH]c5ccc(Cl)cc5c4CCN3C(=O)Oc3ccc(Cl)cc3)cc2)O1 [Compound 1203]	< 8
CCOC(=O)N1CCc2c([nH]c3ccc(SC)cc23)C1c1ccc(OC)cc1 (stereo not drawn) [Compound 1482]	40 to 200
O=C(Oc1ccc(Cl)cc1)N1CCc2c([nH]c3ccc(Cl)cc23)[C@@H]1c1ccc(OCCC(O)CN2CCOCC2)cc1 (stereo partly drawn) [Compound 1279]	< 8
CC1(COc2ccc([C@H]3c4[nH]c5ccc(Cl)cc5c4CCN3C(=O)OCC3CCC3)cc2)COC(C)(C)OC1 [Compound 1318]	< 8
